The results in this text go back to ChEMBL document CHEMBL1152560, “Substituted 2-arylbenzothiazoles as kinase inhibitors: hit-to-lead optimization” (Bioorg Med Chem, 2009).

As a reminder, the residual activity is the signal under treatment as a percentage of the control signal.

Assay [1] addresses Proto-oncogene tyrosine-protein kinase receptor Ret (Homo sapiens) (UniProt P07949). The assay is described as follows: Residual activity of RET at 10 uM by microplate scintillation counting.
Assay [2] addresses T1, Ephrin type-A receptor 8 (Homo sapiens) (UniProt P29322).
T1 sequence (whole entry): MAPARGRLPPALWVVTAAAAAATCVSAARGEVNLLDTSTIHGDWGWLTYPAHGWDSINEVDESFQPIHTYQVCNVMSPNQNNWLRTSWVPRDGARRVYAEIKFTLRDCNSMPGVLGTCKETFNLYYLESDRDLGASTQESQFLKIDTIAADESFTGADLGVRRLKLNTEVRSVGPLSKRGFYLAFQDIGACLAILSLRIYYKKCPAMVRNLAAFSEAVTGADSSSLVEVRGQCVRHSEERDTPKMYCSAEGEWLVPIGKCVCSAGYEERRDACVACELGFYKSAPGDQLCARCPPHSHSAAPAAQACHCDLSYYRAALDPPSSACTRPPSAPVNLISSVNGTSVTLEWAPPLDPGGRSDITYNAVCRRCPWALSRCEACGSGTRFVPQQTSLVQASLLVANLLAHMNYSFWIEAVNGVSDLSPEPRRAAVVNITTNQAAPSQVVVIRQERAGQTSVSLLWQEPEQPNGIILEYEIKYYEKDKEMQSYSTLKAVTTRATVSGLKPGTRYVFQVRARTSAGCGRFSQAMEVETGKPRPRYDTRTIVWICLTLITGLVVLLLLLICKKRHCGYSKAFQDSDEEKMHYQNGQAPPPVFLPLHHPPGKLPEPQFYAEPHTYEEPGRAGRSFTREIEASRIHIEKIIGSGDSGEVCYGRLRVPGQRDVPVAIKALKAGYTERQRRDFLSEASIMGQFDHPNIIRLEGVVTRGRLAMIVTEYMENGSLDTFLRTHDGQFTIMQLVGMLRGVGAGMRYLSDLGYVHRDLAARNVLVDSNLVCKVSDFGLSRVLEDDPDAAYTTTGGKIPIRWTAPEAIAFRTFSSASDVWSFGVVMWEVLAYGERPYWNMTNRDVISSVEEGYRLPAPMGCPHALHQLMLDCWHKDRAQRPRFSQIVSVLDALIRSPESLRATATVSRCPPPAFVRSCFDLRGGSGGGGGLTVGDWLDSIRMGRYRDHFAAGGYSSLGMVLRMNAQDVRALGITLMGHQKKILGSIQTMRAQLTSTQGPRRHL
Put plainly: Residual activity of EPHA8 at 1 uM by microplate scintillation counting.

In assay [3] the target is Serine/threonine-protein kinase Nek7 (Homo sapiens) (UniProt Q8TDX7). The assay is described as follows: Residual activity of NEK7 at 1 uM by microplate scintillation counting.
Chain of Serine/threonine-protein kinase Nek7 (Homo sapiens) (Q8TDX7 whole entry, looked up): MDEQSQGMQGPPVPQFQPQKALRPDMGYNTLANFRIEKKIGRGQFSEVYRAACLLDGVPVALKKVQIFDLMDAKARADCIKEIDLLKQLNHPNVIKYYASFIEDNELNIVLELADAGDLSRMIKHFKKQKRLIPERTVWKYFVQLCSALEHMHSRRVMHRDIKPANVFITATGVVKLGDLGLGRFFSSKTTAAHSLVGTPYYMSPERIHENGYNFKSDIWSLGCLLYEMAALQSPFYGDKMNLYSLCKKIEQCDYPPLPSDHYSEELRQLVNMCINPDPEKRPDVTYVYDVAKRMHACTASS
Assay [4] has as its target Non-receptor tyrosine-protein kinase TYK2 (Homo sapiens) (UniProt P29597). Put plainly: Residual activity of TYK2 at 0.1 uM by microplate scintillation counting.
In assay [5] the target is Serine/threonine-protein kinase WNK3 (Homo sapiens) (UniProt Q9BYP7). Put plainly: Residual activity of WNK3 at 0.1 uM by microplate scintillation counting.
Assay [6] has as its target LIM domain kinase 1 (Homo sapiens) (UniProt P53667). The assay is described as follows: Residual activity of LIMK1 at 1 uM by microplate scintillation counting.
The target is the same in assay [7]. The assay is described as follows: Residual activity of LIMK1 at 10 uM by microplate scintillation counting.
The target of assay [8] is Serine/threonine-protein kinase N1 (Homo sapiens) (UniProt Q16512). The assay is described as follows: Residual activity of PRK1 at 0.1 uM by microplate scintillation counting.
For assay [9], the target named is CDK1/Cyclin E (Homo sapiens) (UniProt P06493+P24864). The assay is described as follows: Residual activity of CDK1/Cyclin E at 10 uM by microplate scintillation counting. In kind it is protein-complex assay.
Chain of CDK1/Cyclin E (Homo sapiens) (P06493 whole entry, looked up): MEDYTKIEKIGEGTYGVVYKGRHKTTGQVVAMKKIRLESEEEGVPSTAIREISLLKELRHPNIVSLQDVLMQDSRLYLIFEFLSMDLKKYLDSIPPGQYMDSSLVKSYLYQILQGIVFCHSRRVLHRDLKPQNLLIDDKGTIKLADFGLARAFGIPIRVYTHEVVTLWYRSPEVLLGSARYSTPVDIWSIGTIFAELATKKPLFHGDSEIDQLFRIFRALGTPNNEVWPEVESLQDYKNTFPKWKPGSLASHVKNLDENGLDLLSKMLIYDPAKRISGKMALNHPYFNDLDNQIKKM
Chain of CDK1/Cyclin E (Homo sapiens) (P24864 whole entry, looked up): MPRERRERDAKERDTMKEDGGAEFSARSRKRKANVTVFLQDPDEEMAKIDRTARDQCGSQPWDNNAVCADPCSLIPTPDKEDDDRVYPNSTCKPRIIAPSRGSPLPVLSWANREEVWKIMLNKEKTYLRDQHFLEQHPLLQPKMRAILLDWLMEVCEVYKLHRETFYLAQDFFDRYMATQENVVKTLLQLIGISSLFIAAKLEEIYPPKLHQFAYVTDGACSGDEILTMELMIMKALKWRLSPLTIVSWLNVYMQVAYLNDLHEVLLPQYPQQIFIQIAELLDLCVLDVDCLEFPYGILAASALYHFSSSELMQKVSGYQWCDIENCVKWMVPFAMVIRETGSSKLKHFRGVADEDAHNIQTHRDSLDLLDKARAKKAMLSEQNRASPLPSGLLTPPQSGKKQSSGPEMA
For assay [10], the target named is Tyrosine-protein kinase ABL2 (Homo sapiens) (UniProt P42684). The assay is described as follows: Residual activity of ABL2 at 1 uM by microplate scintillation counting.
Chain of Tyrosine-protein kinase ABL2 (Homo sapiens) (P42684 whole entry): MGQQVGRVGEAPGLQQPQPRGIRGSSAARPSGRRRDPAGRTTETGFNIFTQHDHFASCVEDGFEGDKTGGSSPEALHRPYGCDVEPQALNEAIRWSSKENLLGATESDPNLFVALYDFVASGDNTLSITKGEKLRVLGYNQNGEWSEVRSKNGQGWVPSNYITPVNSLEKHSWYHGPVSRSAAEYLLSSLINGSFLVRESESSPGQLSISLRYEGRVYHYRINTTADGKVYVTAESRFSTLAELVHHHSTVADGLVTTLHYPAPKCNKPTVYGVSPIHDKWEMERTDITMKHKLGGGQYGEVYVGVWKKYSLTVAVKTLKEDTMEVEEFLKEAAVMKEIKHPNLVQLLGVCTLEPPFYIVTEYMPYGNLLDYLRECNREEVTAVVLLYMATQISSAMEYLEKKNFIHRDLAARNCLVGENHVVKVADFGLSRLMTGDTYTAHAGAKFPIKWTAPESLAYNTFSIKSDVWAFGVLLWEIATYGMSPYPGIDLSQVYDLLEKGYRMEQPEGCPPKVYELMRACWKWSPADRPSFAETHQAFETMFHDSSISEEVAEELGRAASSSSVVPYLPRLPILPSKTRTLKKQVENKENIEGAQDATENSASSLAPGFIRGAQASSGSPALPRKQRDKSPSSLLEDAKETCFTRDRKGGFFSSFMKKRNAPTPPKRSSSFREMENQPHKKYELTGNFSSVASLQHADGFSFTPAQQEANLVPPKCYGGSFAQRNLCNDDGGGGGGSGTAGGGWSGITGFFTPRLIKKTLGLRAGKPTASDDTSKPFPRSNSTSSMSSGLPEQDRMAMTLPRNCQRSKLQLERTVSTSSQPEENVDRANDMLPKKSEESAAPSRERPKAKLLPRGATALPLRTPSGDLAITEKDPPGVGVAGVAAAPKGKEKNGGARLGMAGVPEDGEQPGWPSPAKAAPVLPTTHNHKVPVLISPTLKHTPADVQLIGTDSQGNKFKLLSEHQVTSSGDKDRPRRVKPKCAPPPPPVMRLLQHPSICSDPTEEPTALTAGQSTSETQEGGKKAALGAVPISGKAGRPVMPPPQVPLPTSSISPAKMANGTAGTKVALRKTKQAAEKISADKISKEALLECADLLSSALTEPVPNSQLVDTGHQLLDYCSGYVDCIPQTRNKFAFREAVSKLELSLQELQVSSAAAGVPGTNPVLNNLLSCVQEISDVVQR
In assay [11] the target is T2, Ephrin type-B receptor 2 (Homo sapiens) (UniProt P29323).
T2 sequence (whole entry): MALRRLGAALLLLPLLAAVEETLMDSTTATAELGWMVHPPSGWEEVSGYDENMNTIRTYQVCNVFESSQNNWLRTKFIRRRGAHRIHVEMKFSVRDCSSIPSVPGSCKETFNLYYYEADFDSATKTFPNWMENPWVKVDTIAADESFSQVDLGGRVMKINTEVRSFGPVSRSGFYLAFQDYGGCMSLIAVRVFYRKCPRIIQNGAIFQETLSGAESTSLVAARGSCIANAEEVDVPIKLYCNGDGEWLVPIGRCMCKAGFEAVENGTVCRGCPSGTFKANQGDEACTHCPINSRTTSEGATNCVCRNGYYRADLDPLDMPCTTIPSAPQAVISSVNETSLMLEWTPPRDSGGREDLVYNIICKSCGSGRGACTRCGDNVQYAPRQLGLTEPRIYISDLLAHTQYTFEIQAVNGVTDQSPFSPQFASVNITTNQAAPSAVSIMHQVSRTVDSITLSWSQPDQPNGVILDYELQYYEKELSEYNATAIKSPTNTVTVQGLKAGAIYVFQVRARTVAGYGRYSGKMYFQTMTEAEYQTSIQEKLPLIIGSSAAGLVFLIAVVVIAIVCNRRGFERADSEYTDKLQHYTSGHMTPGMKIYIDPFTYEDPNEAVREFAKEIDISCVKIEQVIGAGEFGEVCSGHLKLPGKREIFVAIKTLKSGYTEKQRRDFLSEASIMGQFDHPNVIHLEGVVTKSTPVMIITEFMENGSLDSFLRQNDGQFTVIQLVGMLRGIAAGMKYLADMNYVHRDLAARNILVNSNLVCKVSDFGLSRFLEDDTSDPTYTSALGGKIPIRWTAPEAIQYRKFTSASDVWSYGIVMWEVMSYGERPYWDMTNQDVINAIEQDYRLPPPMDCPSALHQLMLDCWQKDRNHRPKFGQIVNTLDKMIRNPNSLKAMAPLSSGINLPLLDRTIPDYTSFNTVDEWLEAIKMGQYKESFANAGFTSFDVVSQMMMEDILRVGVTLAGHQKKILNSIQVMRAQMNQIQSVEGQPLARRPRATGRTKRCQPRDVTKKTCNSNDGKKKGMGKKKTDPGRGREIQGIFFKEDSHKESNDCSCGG
The assay is described as follows: Residual activity of EPHB2 at 10 uM by microplate scintillation counting.

Assay [12] deals with Ephrin type-A receptor 7 (Homo sapiens) (UniProt Q15375). The assay is described as follows: Residual activity of EPHA7 at 0.1 uM by microplate scintillation counting.
Chain of Ephrin type-A receptor 7 (Homo sapiens) (Q15375 28-998 limits assumed): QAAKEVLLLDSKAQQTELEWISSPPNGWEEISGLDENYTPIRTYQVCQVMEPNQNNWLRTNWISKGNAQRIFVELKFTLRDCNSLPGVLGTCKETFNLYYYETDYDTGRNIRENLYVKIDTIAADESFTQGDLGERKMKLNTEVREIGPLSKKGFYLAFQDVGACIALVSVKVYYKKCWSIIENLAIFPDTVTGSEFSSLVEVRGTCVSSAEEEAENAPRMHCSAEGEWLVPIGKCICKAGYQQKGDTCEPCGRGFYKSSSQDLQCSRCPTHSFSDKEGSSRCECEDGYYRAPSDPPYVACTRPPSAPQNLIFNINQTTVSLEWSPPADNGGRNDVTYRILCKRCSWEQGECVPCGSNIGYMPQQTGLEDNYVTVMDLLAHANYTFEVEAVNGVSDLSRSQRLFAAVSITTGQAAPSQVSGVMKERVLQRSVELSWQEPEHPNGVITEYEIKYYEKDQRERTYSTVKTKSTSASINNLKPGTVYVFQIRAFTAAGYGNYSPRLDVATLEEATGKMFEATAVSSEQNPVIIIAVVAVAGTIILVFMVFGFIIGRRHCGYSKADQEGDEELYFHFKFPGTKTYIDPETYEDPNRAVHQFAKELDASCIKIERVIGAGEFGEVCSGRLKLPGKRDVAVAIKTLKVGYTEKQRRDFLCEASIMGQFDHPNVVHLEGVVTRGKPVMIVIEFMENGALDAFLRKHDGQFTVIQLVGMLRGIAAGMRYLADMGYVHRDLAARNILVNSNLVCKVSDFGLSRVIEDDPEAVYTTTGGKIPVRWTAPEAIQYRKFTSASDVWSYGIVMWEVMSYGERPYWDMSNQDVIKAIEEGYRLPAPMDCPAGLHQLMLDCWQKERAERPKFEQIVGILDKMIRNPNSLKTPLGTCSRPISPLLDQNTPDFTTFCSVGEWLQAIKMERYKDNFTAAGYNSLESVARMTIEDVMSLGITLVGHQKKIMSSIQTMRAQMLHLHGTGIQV

Chain of Proto-oncogene tyrosine-protein kinase receptor Ret (Homo sapiens) (P07949 whole entry): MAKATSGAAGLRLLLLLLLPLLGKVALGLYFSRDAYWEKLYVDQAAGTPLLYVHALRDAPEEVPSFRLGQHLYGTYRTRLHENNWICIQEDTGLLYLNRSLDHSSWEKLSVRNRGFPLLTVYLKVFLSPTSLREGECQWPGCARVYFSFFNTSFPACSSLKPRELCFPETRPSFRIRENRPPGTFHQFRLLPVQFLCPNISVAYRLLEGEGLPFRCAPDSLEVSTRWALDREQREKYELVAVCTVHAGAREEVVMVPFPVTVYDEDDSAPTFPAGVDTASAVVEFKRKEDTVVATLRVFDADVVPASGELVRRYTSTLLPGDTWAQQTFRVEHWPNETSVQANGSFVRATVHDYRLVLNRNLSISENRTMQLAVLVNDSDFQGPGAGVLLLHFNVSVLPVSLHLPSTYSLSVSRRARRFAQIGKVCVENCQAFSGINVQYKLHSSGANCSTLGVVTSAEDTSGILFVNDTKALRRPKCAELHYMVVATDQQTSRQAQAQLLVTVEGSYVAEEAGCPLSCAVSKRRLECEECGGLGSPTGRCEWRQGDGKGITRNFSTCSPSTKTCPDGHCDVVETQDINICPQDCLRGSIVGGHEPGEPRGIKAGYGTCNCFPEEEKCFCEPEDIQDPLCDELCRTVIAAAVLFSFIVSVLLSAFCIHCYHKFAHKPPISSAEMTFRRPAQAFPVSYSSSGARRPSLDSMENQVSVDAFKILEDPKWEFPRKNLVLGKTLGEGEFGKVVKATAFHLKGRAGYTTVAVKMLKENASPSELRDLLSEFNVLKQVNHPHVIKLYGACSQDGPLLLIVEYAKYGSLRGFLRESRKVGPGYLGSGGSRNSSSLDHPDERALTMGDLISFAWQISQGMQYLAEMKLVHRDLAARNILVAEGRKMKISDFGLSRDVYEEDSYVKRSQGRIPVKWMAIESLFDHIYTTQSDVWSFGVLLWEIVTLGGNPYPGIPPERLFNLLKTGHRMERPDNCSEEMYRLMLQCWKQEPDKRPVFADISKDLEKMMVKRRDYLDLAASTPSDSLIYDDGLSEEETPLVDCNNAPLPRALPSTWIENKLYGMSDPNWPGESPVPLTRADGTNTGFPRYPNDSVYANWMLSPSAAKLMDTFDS
Chain of LIM domain kinase 1 (Homo sapiens) (P53667 whole entry, looked up, the tested form may be a part): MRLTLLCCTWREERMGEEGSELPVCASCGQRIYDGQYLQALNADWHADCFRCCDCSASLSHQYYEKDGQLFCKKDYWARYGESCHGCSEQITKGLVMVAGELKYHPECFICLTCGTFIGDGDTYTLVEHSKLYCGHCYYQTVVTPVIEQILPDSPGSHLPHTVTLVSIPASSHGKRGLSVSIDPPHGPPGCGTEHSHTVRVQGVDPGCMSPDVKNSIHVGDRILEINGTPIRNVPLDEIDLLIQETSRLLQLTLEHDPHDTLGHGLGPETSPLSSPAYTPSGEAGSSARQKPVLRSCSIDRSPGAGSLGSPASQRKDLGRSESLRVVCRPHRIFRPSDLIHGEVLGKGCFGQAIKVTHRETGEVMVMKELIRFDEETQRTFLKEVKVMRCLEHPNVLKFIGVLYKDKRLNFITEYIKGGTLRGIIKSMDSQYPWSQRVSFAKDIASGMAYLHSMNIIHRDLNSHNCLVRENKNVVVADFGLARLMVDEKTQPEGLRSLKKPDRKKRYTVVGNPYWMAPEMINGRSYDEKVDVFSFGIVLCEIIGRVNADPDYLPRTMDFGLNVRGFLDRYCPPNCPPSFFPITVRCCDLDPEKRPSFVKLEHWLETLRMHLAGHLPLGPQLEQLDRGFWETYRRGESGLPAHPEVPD

On to `COc1cc2c(Oc3ccc(-c4nc5ccccc5s4)cc3)ncnc2cc1OCCCN1CCCC1`, for which the residual activity in [1] worked out at 21%; in assay [2], 147%; in assay [3], 104%; in assay [4], 94%; in assay [5], 94%; in assay [6] it was 82%. In addition, the residual activity stood at 96% in assay [7]; 96% in assay [8]; 93% in [9]; 98% in assay [10]; 35% in [11]; 111% in [12].

Consider `COc1cc2c(Oc3ccc(-c4nc5ccccc5s4)cc3F)ncnc2cc1OCCCN1CCN(C)CC1`, for which the residual activity was found to be 5% in assay [1]; 149% in [2]; 103% in [3]; 102% in assay [4]; 84% in assay [5]; 81% in [6]. Further, the residual activity was 95% in [7]; 94% in assay [8]; 107% in [9]; 87% in assay [10]; 16% in assay [11]; 103% in assay [12].

On to `COc1cc2c(Oc3ccc(-c4nc5ccccc5s4)cc3)ncnc2cc1OCCCN1CCN(C)CC1`, for which the residual activity was 13% in assay [1]; 123% in assay [2]; 95% in assay [3]; 90% in [4]; 90% in [5]; 83% in [6]. The residual activity in [7] was found to be 89%; in assay [8], 99%; in assay [9], 108%; in assay [10] it was 99%; in assay [11], 18%; in assay [12] it was 88%.
